Results reported in patent publication US11207289B2, “Use of benzofuran lignans to induce IL-25 expression and suppress mammary tumor metastasis” (ACADEMIA SINICA, priority 2016, dated 2021).

What was measured:
MDA-MB-231-Luc2 cells = assay: MDA-MD-231-Luc2 tumor resection model in nude mice: metastasis and survival; format: in vivo; details: Q2-3 100 μg/kg, DT 5 mg/kg
human IL-25 = assay: 3-D culture, western blot of IL-25 in WI38 fibroblasts and WI38-CM; format: cell-based
Method: To mimic the tumor microenvironment, a 3-dimensional (3-D) co-culture system was employed for the maintenance of mammary tumor cells and tumor-associated fibroblasts in adjacent collagen gels as reported in Rajan et al., Nature protocols, 1, 2753-2758 (2006). More specifically, rat tail collagen solution dissolved in acetic acid was neutralized by 1 N NaOH and then mixed with 10×PBS at 4° C. in a ratio of 9:1. To construct solid tumor-like cell mass, mouse (4T1 or TS/A cells) or human (MCF-7 or MDA-MB-231 cells) mammary tumor cells in each correspondent culture medium (1×10^6 cells/ml) were mixed with 4 mg/ml collagen solution in a ratio of 1:1. Four drops of collagen-tumor cell mixture ([…]) were immediately and separately loaded on culture substratum in each well of a 6-well plate. The plates were then turned-over and kept in CO2 incubator at 37° C. for collagen gelation. […]
To pull down and deplete IL-25 protein molecules in 3T3 or MDA-MB-231 cell conditioned media, the Dynabeads antibody coupling kit (Life Technology; 14311D) was used according to the manufacturer's recommendations, yielding 10 mg/ml anti-IL25 antibody (ProteinTech, Chicago, Ill.)-coupled beads. […] The antibody-pulled down proteins from 3T3-CM, NHDF-CM or WI38-CM, were detected for the content of secreted IL-25 protein in each conditioned medium using western blot analysis. […]

## COC(=O)/C=C/c1cc(O)c2c(c1)C(C(=O)OC)C(c1ccc(O)c(O)c1)O2 (stereo not shown) [Q2-3, methyl(E)-3-[2-(3,4-dihydroxyphenyl)-7-hydroxy-3-methoxycarbonyl-2,3-dihydro-1-benzofuran-5yl]-prop-2-enoate]
MDA-MB-231-Luc2 cells
  survival rate: more effective than treatment with DT
MDA-MB-231-Luc2 cells; i.v. 3 weeks post tumor resection
  anti-metastatic activity (luminescent activity of MDA-MB-231-Luc2 cells): more effective than treatment with DT
Human IL-25; 3-D culture, treatment 24 h or 72 h
  expression of IL-25 in human (WI38) fibroblasts: increased
Human IL-25; WI38-CM
  level of secreted IL-25 in fibroblast-conditioned medium vs untreated: significantly higher
